For assay [1], the system named is APP^WT-transfected human primary neurons. Kind of assay: Neuritic beading in APPWT-transfected human primary neurons. The assay is classed as cell-based. How it is done:
(§1) FIG. 13: VX-765 protects CNS primary human neurons (HPN) against APP- or serum deprivation-mediated neuritic beading. (a) MTT assay with increasing dose of VX-765. (b) Fluorescent micrographs showing homogeneous distribution of EGFP in normal neurons and neuritic beading in APP-transfected neurons. (c) Percentage beading in APP-transfected or serum-deprived neurons treated 1 h before and continuously with stressor (Pre-treatment) or 48 h after stressor (post-beading treatment) with 25 or 50 μM VX-765 or with 5 μM Z-YVAD-fmk Casp1 peptide inhibitor. […] (d-e) HPN secreted or cellular Aβ42/total Aβ38+40+42 (d) (F(3,4)=12.73, p=0.0163, ANOVA, Dunnett's post-hoc compared to Serum+DMSO, *p<0.05), and (e) levels of secreted II-1β, IFN-γ, TNF-α, and II-6 from untreated (+S), serum deprived (−S), or serum-deprived human neurons treated with 25 or 50 μM VX-765.
(§2) EGFP-labeled human primary neurons were either APP^WT transfected or serum deprived. Two treatment strategies were employed to determine VX-765's effects on neuronal degeneration: our Pre-Treatment strategy looked at whether VX-765 could block neuronal degeneration when administered 1 hr prior to APP^WT transfection or serum deprivation, while our Reversal Treatment strategy looked at whether VX-765 could reverse degenerative effects when administered 48 hrs after APP^WT transfection or serum deprivation. Neurons displaying beaded morphology were counted with live imaging and measured as a percentage of the total number of eGFP+ neurons from 24-72 hrs after treatment. The irreversible caspase-1 inhibitor YVAD-fmk was used as positive control in our experiments. Results were obtained from averaging counts for at least 100 eGFP+ neurons per experiment in three independent neuron preparations.

Assay [2] relates to serum deprived human primary neurons. Description: Neuritic beading in serum-deprived human primary neurons. The assay is classed as cell-based. The settings on record: reversal treatment 48 hrs after serum deprivation. The method, then:
as §1, §2

A further assay has as its target T1, recombinant human Casp1 (Homo sapiens, UniProt P29466).
T1 sequence (P29466 120-297 limits assumed): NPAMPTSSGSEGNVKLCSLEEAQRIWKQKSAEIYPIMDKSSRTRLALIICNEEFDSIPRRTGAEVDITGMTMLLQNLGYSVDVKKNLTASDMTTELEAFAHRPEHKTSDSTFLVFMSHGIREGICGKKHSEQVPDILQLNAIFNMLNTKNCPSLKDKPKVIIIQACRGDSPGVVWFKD
T1 sequence (P29466 317-404 limits assumed): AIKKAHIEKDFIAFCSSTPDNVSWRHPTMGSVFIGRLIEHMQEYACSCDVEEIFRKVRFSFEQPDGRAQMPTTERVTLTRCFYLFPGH
Description: Caspase inhibition IC50, recombinant human Casp1. The settings on record: read-out: IC50 against human Casp1. The assay is classed as biochemical. The method, then: (§3) FIG. 14: Selectivity and blood brain permeability of VX-765 and VRT-043198. (a-b) IC50 of VX-765 (a) and VRT-043198 (b) against human Casp1-10. (c-d) IC50 of VX-765 (c) and VRT-043198 (d) against mouse Casp1 and Casp11. (e) Blood brain barrier permeability and presence of VX-765 and VRT-043198 in 3 wild type and 4 J20 mice brain cortex and hippocampus and in plasma. Ratios of brain levels to plasma levels are calculated.

In another assay the target is T2, mouse recombinant Casp1 (Mus musculus, UniProt P29452).
T2 sequence (P29452 119-296 limits assumed): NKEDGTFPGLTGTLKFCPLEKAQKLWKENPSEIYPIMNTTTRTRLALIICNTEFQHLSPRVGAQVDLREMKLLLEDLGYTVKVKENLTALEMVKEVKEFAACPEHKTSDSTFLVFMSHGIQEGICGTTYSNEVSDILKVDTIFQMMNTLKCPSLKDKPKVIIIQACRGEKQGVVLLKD
T2 sequence (P29452 315-402 limits assumed): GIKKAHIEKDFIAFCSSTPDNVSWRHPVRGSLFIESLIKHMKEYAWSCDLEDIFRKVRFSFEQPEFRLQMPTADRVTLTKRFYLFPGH
Description: Caspase inhibition IC50, mouse recombinant Casp1. The format is biochemical. The settings on record: read-out: IC50 against mouse Casp1. How it is done:
as §3

The source of these data is patent US11160788B2, “Caspase-1 inhibition and uses thereof for prevention and treatment of neurological conditions” (priority 2016, dated 2021).

Usually IC50 stands for the concentration at which inhibition is half-maximal.

Consider Z-YVAD-fmk, for which the neuritic beading result in assay [1] (pre-treatment 1 h before and continued, VX-765 25 and 50 μM, Z-YVAD-fmk 5 μM, 48 and 72 h) is “prevented neuritic beading”; in assay [1] (reversal (post-beading) treatment 48 hrs after APP^WT transfection, listed as YVAD), “not able to reverse neuritic beading at any time-point”; in assay [1] (reversal (post-beading) treatment 48 hrs after APP^WT transfection, listed as YVAD-fmk), “unable to reverse or prevent neuritic beading at any time-point”; in assay [2], “neither YVAD nor VX-765 were able to reverse neuritic beading”.
In the case of `CC(C)(C)[C@H](NC(=O)c1ccc(N)c(Cl)c1)C(=O)N1CCC[C@H]1C(=O)N[C@H]1CC(=O)OC1O` (stereo partly drawn) [VRT-043198, (2S)-1-((S)-2-(4-amino-3-chlorobenzamido)-3,3-dimethylbutanoyl)-N-((3S)-2-hydroxy-5-oxotetrahydrofuran-3-yl)pyrrolidine-2-carboxamide], the IC50 at recombinant human Casp1 was 9.91 nM; at mouse recombinant Casp1 it was 18 nM.
